Experimental data taken from paper PMC7570620, “Synthesis and Evaluation of the Antitumor Activity of Novel 1-(4-Substituted phenyl)-2-ethyl Imidazole Apoptosis Inducers In Vitro” (Molecules, 2020).

Key:
[1] = tested on: lung and liver cancer cells; experiment: Preliminary in vitro antitumor activity of lead compounds I and II; type: cell-based; settings: preliminary work of this paper; Figure 2
Source text: To identify new apoptosis-inducing candidates, we attempted to modify the structure of imidazole and its analogs. Imidazole and the related azole moiety are significant pharmacophores in various clinical drugs including antitumor agents. […] The antitumor potency of Tanshinone-IIA has been enhanced by the introduction of an imidazole moiety (Figure 1, TA12) in order to block cancer cell invasion and metastasis in vivo [16]. […] Previously, we reported a series of imidazole-fused quinoline compound I and its open-chain analogue compound II, 2-ethyl-1-phenyl-1H-imidazole (Figure 2). […] We speculated that its flexible structure caused this difference in antitumor activity. However, both their antitumor activities were not strong enough as a potent antitumor agent. So, using compound II as a lead, we designed and synthesized several structurally modified derivatives. The effects of LogP and hydrogen bonds on bioavailability were considered, and several aliphatic and aromatic amines were selected and linked to the 1-phenyl imidazole scaffold using a succinyl group as a cross-linker. This approach yielded several novel imidazole derivatives with cLogP values ranging from 1.99 to 4.34.
Figure 2 Title compounds design. Yellow: pharmacophore and Blue: aliphatic/aromatic amine. TEXT PRINTED IN THE PICTURE: I: 300 uM< IC50 < 500 uM | II: 100 uM < IC50 < 300 uM

HeLa cells [2] = experiment: Hoechst/PI double staining apoptosis analysis; type: cell-based, human; settings: 24 h, 4f 3.24 µM (legend: 4 µM), 5-FU 18 µM
Experimental: Apoptosis and necrosis were analyzed by Hoechst/propidium iodide (CA1120, Solarbio, Beijing, China) double staining. HeLa cells were seeded in six-well plates (10^4 cells/well) and treated with IC50 concentrations of 5-FU or one of the tested derivatives for 0, 3, 6, 12, and 24 h. Next, the cells were collected and washed once in phosphate-buffered saline (PBS). The cells were then resuspended in 195 µL of binding buffer, and dual staining was performed with 3 µL of Hoechst and 3 µL of PI. Next, the cells were incubated for 15 min at room temperature in the dark. Apoptotic cells were analyzed using the EVOS FL Auto Cell Imaging System (Thermo Fisher Scientific, Shanghai, China).
(A) HeLa cells were treated with 4 µM of 4f or 18 µM of 5-FU for 0, 3, 6, 12, or 24 h and were stained using the Hoechst/PI solution. Morphology and fluorescence intensity were examined under a fluorescence microscope (magnification: ×200). (B) Quantification of the percentages of apoptotic cells. Error bars indicate the mean ± SD of three independent experiments (* p < 0.05, ** p < 0.01, and *** p < 0.001 indicate significant differences).

A549 = experiment: MTT cell viability assay, A549; type: cell-based; settings: Homo sapiens, 24 h incubation, mean ± SD, n = 4
Experimental: (§1) The synthesized compounds were subjected to a cytotoxicity assay using the MTT method, as described previously. IC50 is defined as the drug concentration causing a 50% reduction in cell numbers compared to the untreated control. For screening, we evaluated the effects of the compounds on the growth of three cancer cell lines (A549, SGC-7901, and HeLa). In addition, their toxicities were tested using one normal cell line (L-02). The results are the averages of four separate measurements. MTX and 5-FU served as positive controls.
(§2) The three cancer cell lines namely the human lung cancer cell line (A549), human cervical cancer cell line (HeLa), human gastric carcinoma cell line (SGC-7901), and normal liver cell line (L-02) were acquired from the American Type Culture Collection (Manassas, VA, USA). A549 and SGC-7901 cells were routinely cultured in RPMI-1640. In addition, HeLa and L-02 cells were routinely cultured in DMEM. Media was supplemented with 10% fetal bovine serum (FBS). Cells were maintained at subconfluency at 37 °C in humidified air containing 5% CO2. The cells were monitored daily and maintained at 80% cell density. All compounds tested were dissolved in DMSO and then diluted by the culture medium before the treatment of cultured cells.
(§3) Cytotoxicity of the tested samples was measured against each cell line using the 3-(4,5-dimethylthiazol-2-yl)-2,5-diphenyltetrazolium bromide (MTT) cell viability assay (Maher et al., 2019). Cancer cells (A549, SGC-7901, and HeLa) and L-02 normal cells were harvested during the logarithmic growth phase. All cells were seeded in 96-well plates at 10^4 cells/well and were treated with 5-fluorouracil (5-FU), methotrexate (MTX), and the tested samples for 24 h at final concentrations of […]. Next, 20 µL of freshly prepared MTT (Solarbio) solution (5 mg/mL of MTT in PBS) was added to each well, and the cells were cultured for 4 h at 37 °C. The supernatants were removed and resolved with 100 µL of DMSO, and the cells were shocked for 10 min at 37 °C. The optical density of the samples was measured at 490 nm using a microplate luminometer. Cell viability was expressed as the percentage change in absorbance compared to the control values.

HeLa = experiment: MTT cell viability assay, HeLa; type: cell-based; settings: Homo sapiens, 24 h incubation, mean ± SD, n = 4
Experimental: as §1, §2, §3

L-02 = experiment: MTT cytotoxicity in normal cell line L-02; type: cell-based; settings: for IC50: Homo sapiens, L02, normal cell line L-02, MTT; for Selectivity Index A549: IC50 in normal cells (L-02)/IC50 in tumor cells (A549); for Selectivity Index HeLa: IC50 in normal cells (L-02)/IC50 in tumor cells (HeLa); for Selectivity Index SGC-7901: IC50 in normal cells (L-02)/IC50 in tumor cells (SGC-7901)
Experimental: as §1
The lack of selectivity between normal and cancer cells is one of the primary limitations of antitumor drugs. We evaluated the cytotoxicity of compounds 4c, 4e–4i, 4l, 4m, and 4q in the normal cell line L-02 to determine the selectivity index (defined as the ratio of cytotoxicity in L-02 cells compared to that in cancer cells). […] Compound 4q yielded satisfactory SI values in HeLa and SGC-7901 cells but an unsatisfactory SI value in A549 cells. […] Compound 4f was selected for the subsequent biological studies.
as §2, §3

SGC-7901 = experiment: MTT cell viability assay, SGC-7901; type: cell-based; settings: Homo sapiens, 24 h incubation, mean ± SD, n = 4
Experimental: as §1, §2, §3

HeLa cells [3] = experiment: Western blot of apoptotic proteins; type: cell-based, human
Experimental: The results of the Western blot analysis were expressed as the relative ratio of the specific compound band compared with the internal reference.
For performing Western blot analysis, the cells were washed with PBS and lysis buffer (P0013B, Beyotime). After incubation on ice for 30 min, the homogenate was centrifuged at 12,000g for 15 min at 4 °C, and the supernatant was used for protein analysis. Protein concentration was determined using the BCA protein assay (P0012S, Beyotime, Beijing, China). Sodium dodecyl sulfate-polyacrylamide gel electrophoresis was performed using the Bio-Rad Mini-Protean Tetra System (Bio-Rad, Hercules, CA, US). The proteins on the gel were then transferred onto polyvinylidene fluoride membranes (PVDF, Millipore, Beijing, China) for 2 h at 200 mA and blocked for 2 h with 5% skim milk at room temperature to prevent nonspecific binding. The blots were probed with the indicated primary antibodies followed by horseradish peroxidase (HRP)-conjugated goat anti-rabbit or anti-mouse IgG (Beyotime). Rabbit anti-Bcl-2 and mouse anti-actin antibodies were purchased from Beyotime. Rabbit anti-Bax, anti-Caspass-3, and anti-PARP monoclonal antibodies were purchased from Cell Signaling Technology (Danvers, MA, USA).
Figure 4 Apoptotic effects of 4f on HeLa cells. (A) The effect of compound 4f on the expression levels of Bax, Bcl-2, Caspase 3, and cle-PARP in HeLa cells was analyzed using Western blotting. (B) Densitometric quantification. * p < 0.05, ** p < 0.01, and *** p < 0.001 relative to the control group (0 h). Bcl-2, B-cell lymphoma 2; Bax, […]; cle-PARP, cleaved poly ADP-ribose polymerase.

IC50 [1] | IC50 (A549) | IC50 (HeLa) | IC50 (SGC-7901) | SMILES | apoptosis rate (HeLa cells [2]) | IC50 (L-02) | Selectivity Index A549 (L-02) | Selectivity Index HeLa (L-02) | Selectivity Index SGC-7901 (L-02) | expression of Bcl-2 (HeLa cells [3]; 3.24 µM, time-dependent 3–24 h) | expression of the Bax protein (HeLa cells [3]; 3.24 µM, time-dependent 3–24 h) | Caspase-3 expression increase (HeLa cells [3]; 24 h after treatment, 4f 3.24 µM) | Selectivity index, tolerance of normal L-02 cells versus tumor cells (L-02; range over the three tumor cell lines)
100 to 300 µM |  |  |  | CCc1nccn1-c1ccccc1 [II, 2-ethyl-1-phenyl-1H-imidazole] |  |  |  |  |  |  |  |  | 
 | 22.6 ± 2.59 µM | 18.3 ± 1.52 µM | 16.4 ± 0.88 µM | O=c1[nH]cc(F)c(=O)[nH]1 [Compound 5-FU, 5-fluorouracil, reference compound] | 39.6% | 74.7 ± 7.85 µM | 3.30 | 4.08 | 4.57 |  |  |  | 
 | 6.6 ± 0.36 µM | 3.24 ± 0.23 µM | 5.37 ± 0.85 µM | CCc1nccn1-c1ccc(NC(=O)CCC(=O)Nc2ccc(Br)cc2)cc1 [Compound 4f, 1-(4-(3-(4-Br-Phenylcarbamoyl)propionamide)phenyl)-2-ethyl Imidazol] | 68.2% | 152 ± 10.8 µM | 23.03 | 46.92 | 28.31 | decreased | significantly increased | 134.3% | 23–46 fold
